# Literature values as cited in patent US9072749B2, “Treatment of age-related macular degeneration” (priority 2007, dated 2015).
# Read-outs that look alike come from different tables or passages of the source.
# Tests used:
# [1] = tested on: choroidal neovascularization; conditions: in vivo
# [2] = oral dosing in dogs
# dogs = conditions: oral dosing in dogs
# D1/D5 receptor = conditions: anesthetized rabbits
structure (smiles),measurement,setting,value
CC1=C(/C=C/C(C)=C/C=C/C(C)=C/C=C/C=C(C)/C=C/C=C(C)/C=C/C2=C(C)C(=O)C(O)CC2(C)C)C(C)(C)CC(O)C1=O (stereo not shown) [Astaxanthin],choroidal neovascularization,[1],inhibit choroidal neovascularization
Oc1ccc(C2CNCCc3c2cc(O)c(O)c3Cl)cc1 (stereo not shown) [Fenoldopam],plasma fenoldopam (drug blood) level,[2],rapidly gives high drug blood level
same,duration of drug blood level and increase in renal blood flow,dogs; FIGS. 2a and 2b,relatively short duration
CCNC(=O)Oc1ccc([C@H]2CNCCc3c2cc(OC(=O)NCC)c(OC(=O)NCC)c3Cl)cc1 [SKF 10508],plasma fenoldopam (drug blood) level,[2],more gradual increase of drug blood level
same,plasma fenoldopam (drug blood) level,[2]; listed as SK&F 105058,release fenoldopam slowly after oral absorption
same,time for which the increase in renal blood flow is sustained,dogs; FIGS. 3A and 3B,greater than 6 hours
NCCc1ccc(O)c(O)c1 [dopamine],choroidal vasodilation,D1/D5 receptor,caused choroidal vasodilation
